Measured values taken from patent US20250387458A1, “COACTIVE COMBINATIONS OF ANTIMICROBIALS WITH DISPERSINB” (KANE BIOTECH INC., priority 2020, published 2025).
Entries after “also recorded” stand apart in the source; their conditions may differ. Counter-ions that a name gives are not always drawn. Positions of bridges follow the written chain, without caps; N, C: chain ends. Non-standard residues stand in square brackets, D forms with d. Residues, ends and D or L forms follow the SMILES beside them. ξ: configuration not given here. *: point of attachment. X1 = CC[C@H](C)CCCCC(=O)*; dDab = NCC[C@@H](N)C(=O)O; Dab = NCC[C@H](N)C(=O)O; ξDab = NCCC(N)C(=O)O

How the values were obtained:
[1] = system: S. epidermidis biofilm; test: Inactivation of biofilm embedded bacteria using liquid buffer formulation (Method 1), S. epidermidis; format: cell-based, Staphylococcus epidermidis; conditions: for Biofilm inactivation: buffer formulation, antimicrobial tested with DspB; for Effect of DspB on activity of the antimicrobial against biofilm embedded S. epidermidis: buffer, antimicrobial plus DspB vs antimicrobial alone, P<0.05
Procedure: (§1) Method 1: Method to Test Inactivation of Biofilm Embedded Bacteria Using Liquid Buffer Formulation
(§2) S. epidermidis or E. coli biofilm were each grown in 96-well plate and washed three times to remove planktonic cells. Then biofilm was treated using 50 mM phosphate or citrate buffer, (no treatment control), buffer solutions containing DspB at 10-200 μg/ml, buffer solution containing antimicrobial alone, and buffer solution DspB plus antimicrobial for varying exposure times (10 min-3 h). After treatments, biofilm embedded bacteria was dispersed, diluted serially and plated on Tryptic soy agar plates. Data was analyzed using ANOVA and Tukey's test.

[2] = system: S. epidermidis biofilm; test: Compatibility between antimicrobials or antibiotics and DspB, biofilm dispersal assay in buffer (Method 3); format: cell-based, Staphylococcus epidermidis; conditions: for Biofilm dispersal when DspB and antimicrobial were added together: 20 μg/ml DspB, mixture used at 0 and 2 h, 10 min treatment
Procedure: Method 3: Method to Test Compatibility Between Antimicrobials or Antibiotics and DspB Using Biofilm Dispersal Assay
S. epidermidis biofilm was grown in 96-well plate and washed three times using sterile water to remove planktonic cells. Antimicrobials or antibiotics and DspB formulations were prepared in 50 mM phosphate or citrate buffer and stored at 37° C. for 2 h and used for treating biofilm at 0 and 2 h. Biofilm was treated using antimicrobials or antibiotics and DspB formulations for 10 min. After treatments, solutions were removed and washed 3 times to remove dispersed biofilm. Remaining biofilms in 96-well plates were stained using Crystal violet, unbound crystal violet was removed by washing the wells with sterile water, the biofilm bound crystal violet was eluted using 33% acetic acid, and the absorbance at 620 nm was taken using a microwell plate reader. Percent biofilm removal was calculated. Data was analyzed using ANOVA and Tukey's test.

[3] = system: DspB; test: Compatibility between antimicrobials or antibiotics and DspB in gel, enzymatic assay (Method 6); format: biochemical, Aggregatibacter actinomycetemcomitans; conditions: for Enzymatic activity of DspB in the presence of the antimicrobial compared with DspB control: P≤0.05, carvacrol and cinnamaldehyde at 0-30 min, chloroxylenol at 5, 10, 20 and 60 min
Procedure: Method 6: Method to Test Compatibility Between Antimicrobials or Antibiotics and DspB in Gel Using Enzymatic Assay
DspB gel containing 200 μg/ml DspB, 16% […] (PF127), 50 mM Phosphate buffer or citrate, 100 mM NaCl, pH 5.9, and 2× concentrated antimicrobial agent/antibiotics in 16% Poloxamer 405, 50 mM Phosphate buffer, 100 mM NaCl, pH 5.9 were mixed in equal proportions. 4×5 μL aliquots were withdrawn at 0, 5, 10, 20, 30, 60, and 120 min for measurement of DspB enzymatic activity. DspB enzymatic activity was measured using β-N-acetylglucosaminidase assay kit from Sigma (product code CS0780) in 96-well microtiter plate following the manufacturer's instructions. The plate was incubated for 30 minutes before terminating the reaction. Data analysis was done in Excel. Student T test (paired) was performed for each time point separately using DspB activity in mixture and in control sample as two set of variables. […]

[4] = system: S. epidermidis biofilm; test: Biofilm dispersal by DspB gel formulations (Method 5); format: cell-based, Staphylococcus epidermidis; conditions: for Biofilm dispersal of gel containing DspB and antimicrobial compared with gel containing DspB alone: PF127 gel, 20 μg/ml DspB
Procedure: Method 5: Method to Test Biofilm Dispersal by DspB Gel Formulations
S. epidermidis biofilm was grown in 96-well plate and washed three times to remove planktonic cells. Then biofilm was treated using different DspB formulations appropriate treatment duration (10 min-1 h). After treatments, gels were removed and washed 3 times with sterile distilled water to remove excess gel and dispersed biofilm. Remaining biofilms in 96-well plates were stained using Crystal violet and unbound crystal violet was removed by washing the wells with sterile water, the biofilm bound crystal violet was eluted using 33% acetic acid, and the absorbance at 620 nm was taken using a microwell plate reader.
Gels containing DspB and selected concentrations of antimicrobials were formulated in 50 mM phosphate buffer or citrate buffer containing 16% PF127. DspB gel and antimicrobial gel were mixed together and incubated at 37° C. for 2 h. Biofilm dispersal was performed at 0 and 2 h using biofilm dispersal assay (Method 5). Blank gel, DspB gel and antimicrobial gels were included as controls.

[5] = system: DspB; test: Compatibility between antimicrobials or antibiotics and DspB, enzymatic assay in buffer (Method 4); format: biochemical, Aggregatibacter actinomycetemcomitans
Procedure: Method 4: Method to Test Compatibility Between Antimicrobials or Antibiotics and DspB Using Enzymatic Assay
DspB (200 μg/mL) and antimicrobial agent/antibiotic stocks were prepared in respective buffers. 10 mM paranitrophenol (PNP) in 400 mM sodium carbonate, and the buffer (same DspB stock) was used as the standard solution, and negative control, respectively. DspB stock and antimicrobial stock were mixed in equal proportions, and then 4×5 μl samples were taken at defined time points (0, 5, 10, 20, 30, 60, and 120 min) and used to measure the DspB enzyme activity. DspB enzymatic activity was measured using β-N-Acetylglucosaminidase assay kit from Sigma (product code CS0780) in 96-well microtiter plate following the manufacturer's instructions. The plate was incubated for 30 minutes before terminating the reaction. Data analysis was done in Excel. Student T test (paired) was performed for each time point separately using DspB activity in mixture and in control sample as two set of variables.

[6] = system: E. coli biofilm; test: Inactivation of biofilm embedded bacteria using liquid buffer formulation (Method 1), E. coli; format: cell-based, Escherichia coli; conditions: antimicrobial plus DspB vs antimicrobial alone
Procedure: as §1, §2

[7] = gel formulation, 100 μg/ml DspB

Molecule: Cc1cc(O)cc(C)c1Cl [Chloroxylenol]
- Biofilm inactivation [1]: >5 log log CFU
- Biofilm dispersal when DspB and antimicrobial were added together ([2]; buffer): ≥ 74%

Molecule: BisEDT
- Biofilm inactivation [1]: <1 log log CFU

Molecule: C/C(=C\C(=O)OCCCCCCCCC(=O)O)C[C@@H]1OC[C@H](C[C@@H]2O[C@H]2[C@@H](C)[C@H](C)O)[C@@H](O)[C@H]1O [Mupirocin]
- Synergy or compatibility with DspB, E: enzymatic [3, 7]: E: synergy
- DspB activity in the presence of the antimicrobial, enzymatic assay ([3]; wound gel, for up to 2 h, relative to 100 μg/mL DspB control): > 100%

Molecule: CC(=O)CC/C=C(\C)CCC=C(C)C [Geranyl acetone]
- Biofilm inactivation [1]: <0.5 log log CFU

Molecule: Cc1ncc([N+](=O)[O-])n1CCO [Metronidazole]
- Biofilm dispersal of gel containing DspB and antimicrobial compared with gel containing DspB alone [4]: similar
- Synergy or compatibility with DspB, E: enzymatic [3, 7]: E: compatible

Molecule: CCCCC(CC)CNC(=N)NC(=N)NCCCCCCNC(=N)NC(=N)NCC(CC)CCCC (centres unmarked) [Alexidine, Alexidine dihydrochloride]
- Biofilm inactivation [1]: >5 log log CFU
- Effect of DspB on activity of the antimicrobial against biofilm embedded S. epidermidis [1]: enhanced

Molecule: Nisin
- Biofilm inactivation [1]: <0.5 log log CFU

Molecule: CC(C)=CCC/C(C)=C\CO [Nerol]
- Biofilm inactivation [1]: <0.5 log log CFU

Molecule: CCCCCCCCCCCCCCCC[n+]1ccccc1.[Cl-] [Cetylpyridinium chloride]
- Synergy or compatibility with DspB, E: enzymatic [5]: E: no synergy
- Synergy or compatibility with DspB, E: enzymatic [3]: E: compatible

Molecule: CC[C@H](C)CCCCC(=O)N[C@@H](CCN)C(=O)N[C@H](C(=O)NC(CCN)C(=O)N[C@H]1CCNC(=O)[C@H]([C@@H](C)O)NC(=O)[C@H](CCN)NC(=O)[C@H](CCN)NC(=O)[C@H](CC(C)C)NC(=O)[C@@H](Cc2ccccc2)NC(=O)[C@@H](CCN)NC1=O)[C@@H](C)O (some centres unmarked) [Polymyxin B sulfate] (X1-[Dab]T[ξDab][Dab][dDab][dF]L[Dab][Dab]T; lactam 4-C)
- Biofilm dispersal of gel containing DspB and antimicrobial compared with gel containing DspB alone [4]: similar
- Synergy or compatibility with DspB, E: enzymatic [3, 7]: E: compatible

Molecule: Cc1ccc(C(C)C)c(O)c1 [Thymol]
- Biofilm inactivation [1]: >5 log log CFU
- Effect of DspB on activity of the antimicrobial against biofilm embedded S. epidermidis [1]: enhanced

Molecule: COc1ccc2cc3[n+](cc2c1OC)CCc1cc2c(cc1-3)OCO2 [Berberine hydrochloride]
- Effect of DspB on activity of the antimicrobial against biofilm embedded S. epidermidis ([1]; hydrochloride): no synergistic activity
- Effect of DspB on activity of the antimicrobial against biofilm embedded S. epidermidis ([1]; listed as berberine hydrochloride, hydrochloride): did not enhance activity; also recorded: antagonism

Molecule: CNC1C(O)[C@@H](O[C@H]2C(N)C[C@H](N)C(O[C@H]3OC([C@@H](C)N)CCC3N)C2O)OC[C@]1(C)O (some centres unmarked) [Gentamicin sulfate]
- Biofilm dispersal of gel containing DspB and antimicrobial compared with gel containing DspB alone [4]: similar
- Synergy or compatibility with DspB, E: enzymatic [3, 7]: E: compatible

Molecule: O=C/C=C/c1ccccc1 [Cinnamaldehyde]
- Effect of DspB on activity of the antimicrobial against biofilm embedded S. epidermidis [1]: enhanced
- Effect of DspB on activity of the antimicrobial against biofilm embedded E. coli ([6]; P<0.05): enhanced
- Biofilm dispersal when DspB and antimicrobial were added together ([2]; buffer): ≥ 78%
- Biofilm dispersal of gel containing DspB and antimicrobial compared with gel containing DspB alone [4]: similar
- Synergy or compatibility with DspB, E: enzymatic [3, 7]: E: synergy
- Enzymatic activity of DspB in the presence of the antimicrobial compared with DspB control ([3]; wound gel): Higher enzymatic activity

Molecule: O=C(O)C=Cc1ccccc1 [Cinnamic acid]
- Biofilm inactivation [1]: <0.5 log log CFU
- Effect of DspB on activity of the antimicrobial against biofilm embedded S. epidermidis [1]: did not show any enhancement

Molecule: Benzalkonium chloride
- Synergy or compatibility with DspB, M: microbiological (biofilm dispersal assay; biofilm inactivation not tested) [2]: M: no synergy
- Synergy or compatibility with DspB, E: enzymatic [5]: E: no synergy
- Synergy or compatibility with DspB, M: microbiological (biofilm dispersal assay; biofilm inactivation not tested) [4]: M: compatible
- Synergy or compatibility with DspB, E: enzymatic [3]: E: compatible

Molecule: Cc1ccc(C(C)C)cc1O [Carvacrol]
- Biofilm inactivation [1]: >5 log log CFU
- Effect of DspB on activity of the antimicrobial against biofilm embedded S. epidermidis [1]: enhanced
- Effect of DspB on activity of the antimicrobial against biofilm embedded E. coli ([6]; P<0.05): enhanced
- Biofilm dispersal when DspB and antimicrobial were added together ([2]; buffer): ≥ 73%
- Synergy or compatibility with DspB, E: enzymatic [5]: E: synergy
- Synergy or compatibility with DspB, M: microbiological (biofilm dispersal assay; biofilm inactivation not tested) [4]: M: compatible
- Biofilm dispersal of gel containing DspB and antimicrobial compared with gel containing DspB alone [4]: similar
- Synergy or compatibility with DspB, E: enzymatic [3]: E: synergy
- Enzymatic activity of DspB in the presence of the antimicrobial compared with DspB control ([3]; wound gel): Higher enzymatic activity

Molecule: CCCCCCCCN=c1ccn(CCCCCCCCCCn2ccc(=NCCCCCCCC)cc2)cc1.Cl.Cl [Octenidine dihydrochloride, octenidine dihydrochloride]
- Biofilm inactivation [1]: >5 log log CFU
- Effect of DspB on activity of the antimicrobial against biofilm embedded S. epidermidis ([1]; dihydrochloride): enhanced activity
- Effect of DspB on activity of the antimicrobial against biofilm embedded S. epidermidis ([1]; listed as ODC, dihydrochloride): enhanced
- Effect of DspB on activity of the antimicrobial against biofilm embedded E. coli ([6]; P<0.05, dihydrochloride): enhanced activity
- Effect of DspB on activity of the antimicrobial against biofilm embedded E. coli ([6]; P<0.05, listed as ODC, dihydrochloride): enhanced
- Biofilm dispersal when 20 μg/ml DspB was mixed with the antimicrobial ([2]; biofilms treated for 10 min, data not presented): no biofilm dispersal was observed
- Biofilm dispersal when DspB and antimicrobial were added together for 2 h ([2]; buffer, 100 μg/ml DspB, 0.01% ODC): minimal biofilm dispersal
- Biofilm dispersal of gel containing DspB and antimicrobial compared with gel containing DspB alone [4]: similar
- Synergy or compatibility with DspB, E: enzymatic [3, 7]: E: compatible

Molecule: C=CC(C)(O)CCC=C(C)CCC=C(C)C (centres unmarked) [Nerolidol]
- Biofilm inactivation [1]: <0.5 log log CFU
